Literature values in paper PMC5862788 (Antiviral therapy, 2018).
Read-outs that look alike come from different tables or passages of the source.

Test system: HCV

## CC(C)C(=O)OC[C@H]1O[C@@H](n2ccc(N)nc2=O)[C@](C)(F)[C@@H]1OC(=O)C(C)C [mericitabine]
1500 mg bid
  predicted effectiveness ε: 0.997

## COC(=O)N[C@H](C(=O)N1CCC[C@H]1c1nc(-c2ccc(-c3ccc(-c4c[nH]c([C@@H]5CCCN5C(=O)[C@@H](NC(=O)OC)C(C)C)n4)cc3)cc2)c[nH]1)C(C)C [daclatasvir]
200 mg tid
  predicted effectiveness ε: 0.996

## CC(C)(C)OC(=O)N[C@H]1CCCCC/C=C\[C@@H]2C[C@@]2(C(=O)NS(=O)(=O)C2CC2)NC(=O)[C@@H]2C[C@@H](OC(=O)N3Cc4cccc(F)c4C3)CN2C1=O [danoprevir]
100 mg bid
  predicted effectiveness ε: 0.976
monotherapy, 200 mg tid and 300 mg bid
  predicted effectiveness ε: 0.992
